IC50 data for 20 molecules are collected here from US9139593B2, “Azetidine compounds, compositions and methods of use” (Hoffman-La Roche Inc., priority 2011, dated 2015).

Structures are written as SMILES.

Chain of Human Soluble Epoxide Hydrolase (P34913 whole entry): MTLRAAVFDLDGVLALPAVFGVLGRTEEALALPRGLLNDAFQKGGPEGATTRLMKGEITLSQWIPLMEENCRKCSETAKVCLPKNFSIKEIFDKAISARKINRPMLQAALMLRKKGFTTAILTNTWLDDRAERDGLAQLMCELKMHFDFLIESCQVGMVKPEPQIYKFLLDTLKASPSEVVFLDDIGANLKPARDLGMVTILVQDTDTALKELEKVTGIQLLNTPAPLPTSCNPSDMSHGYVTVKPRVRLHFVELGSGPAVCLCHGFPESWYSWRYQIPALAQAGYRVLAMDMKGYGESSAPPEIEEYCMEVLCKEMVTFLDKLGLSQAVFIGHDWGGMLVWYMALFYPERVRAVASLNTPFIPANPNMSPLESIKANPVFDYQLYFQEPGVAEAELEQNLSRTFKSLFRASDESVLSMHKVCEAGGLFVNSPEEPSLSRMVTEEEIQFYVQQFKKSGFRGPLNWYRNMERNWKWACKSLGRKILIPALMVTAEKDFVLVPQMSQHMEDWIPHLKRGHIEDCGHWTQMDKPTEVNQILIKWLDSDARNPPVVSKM

The assay has as its target Human Soluble Epoxide Hydrolase (Homo sapiens (Human), UniProt P34913). Nature of the assay: Human Soluble Epoxide Hydrolase Enzyme Assay. The format is biochemical. The settings on record: resorufin epoxide substrate, fluorescence, room temperature, triplicates. How it is done: Human Soluble Epoxide Hydrolase Enzyme Assay
Test compounds (1.6 mM stock in DMSO) were diluted 3 fold in series in DMSO and 0.8 microliters per well were added into 384-well NBS microplates (Corning). Resorufin epoxide substrate (20 uM stock in DMSO) was diluted to 5 μM with Assay Buffer (25 mM bis-Tris-HCl, pH 7.0, 1 mM DTT and 0.2 mg/ml BSA) and 8 microliters per well were added to the microplates. Thirty two microliters per well of 3.6 nM soluble epoxide hydrolase in Assay Buffer was then added. The samples were incubated at room temperature and assay signals were monitored by reading excitation at 530 nm and emission fluorescence at 590 nm on a PlateVision (Zeiss) reader every 2 minutes for 8 times. The reaction rate, % inhibition and IC50 values were calculated using AssayAnalyzer and Condoseo software (Genedata AG, Basel, Switzerland).
All the experiments were done in triplicates.
The compounds of the present invention were tested for their capacity to inhibit sEH activity.
Usually IC50 stands for the concentration that gives 50% inhibition. The low end stands for higher potency, the high end for lower potency. With `O=C(NCc1ccc(Cl)cc1Cl)N[C@@H]1CCC12CN(S(=O)(=O)c1ccc(Cl)cc1)C2` [Example 16, (R)-1-(2-(4-Chlorophenylsulfonyl)-2-azaspiro[3.3]heptan-5-yl)-3-(2,4-dichlorobenzyl)urea], inhibition was half-maximal at 2690 nM (IC50).

In the case of `O=C(NC12CC3CC(CC(C3)C1)C2)N1CC2(CCN2S(=O)(=O)c2ccc(Cl)cc2)C1` [Example 10, 1-(4-Chloro-benzenesulfonyl)-1,6-diaza-spiro[3.3]heptane-6-carboxylic acid adamantan-1-ylamide], the IC50 was 2550 nM.

Turning to `O=C(NCc1ccc(Cl)cc1Cl)N1CC2(CCN2S(=O)(=O)c2ccc(Cl)cc2)C1` [Example 11, 1-(4-Chloro-benzenesulfonyl)-1,6-diaza-spiro[3.3]heptane-6-carboxylic acid 2,4-dichloro-benzylamide], the IC50 is 640 nM.

`O=C(NCc1ccc(Cl)cc1Cl)N1CCC12CN(S(=O)(=O)c1ccc(Cl)cc1)C2` [Example 6, 6-(4-Chlorophenylsulfonyl)-N-(2,4-dichlorobenzyl)-1,6-diazaspiro[3.3]heptane-1-carboxamide]: the IC50 stood at 321 nM.

Turning to `O=C(NCc1ccc(Cl)cc1Cl)N1CC2(CCN2S(=O)(=O)c2ccc(F)cc2)C1` [Example 5, N-(2,4-Dichlorobenzyl)-1-(4-fluorophenylsulfonyl)-1,6-diazaspiro[3.3]heptane-6-carboxamide], the IC50 came to 284 nM.

Turning to `O=C(NCc1ccc(Cl)cc1Cl)N1CC2(CCN2c2ncccn2)C1` [Example 7, N-(2,4-Dichlorobenzyl)-1-(pyrimidin-2-yl)-1,6-diazaspiro[3.3]heptane-6-carboxamide], inhibition was half-maximal at 125 nM (IC50).

Regarding `O=C(O)c1ccc(N2CC3(CN(C(=O)NCc4ccc(Cl)cc4Cl)C3)C2)cc1` [Example 2, 4-[6-(2,4-Dichloro-benzylcarbamoyl)-2,6-diaza-spiro[3.3]hept-2-yl]-benzoic acid], it took 1260 nM to reach half-maximal inhibition (IC50).

As for `O=C(NCc1ccc(Cl)cc1Cl)N1CC2(C1)CN(c1ncccn1)C2` [Example 4, 6-Pyrimidin-2-yl-2,6-diaza-spiro[3.3]heptane-2-carboxylic acid 2,4-dichloro-benzylamide], half-maximal inhibition (IC50) required 2320 nM.

In turn, `O=C(NCCCc1ccccc1)N1CC2(CCN2S(=O)(=O)c2ccccc2C(F)(F)F)C1` [Example 13, 1-(2-trifluoromethyl-benzenesulfonyl)-1,6-diaza-spiro[3.3]heptane-6-carboxylic acid (3-phenyl-propyl)-amide] gave an IC50 of 476 nM.

Molecule `O=C(NCCCc1ccccc1)[C@@H]1CCC12CN(S(=O)(=O)c1ccccc1Cl)C2` [Example 14, (R)-2-(2-Chlorophenylsulfonyl)-N-(3-phenylpropyl)-2-azaspiro[3.3]heptane-5-carboxamide] showed an IC50 of 2790 nM.

Take `O=C(NCc1ccc(Cl)cc1Cl)N1CC2CN(S(=O)(=O)c3ccccc3)C2C1` (racemic) [Example 19, rac-6-Benzenesulfonyl-3,6-diaza-bicyclo[3.2.0]heptane-3-carboxylic acid 2,4-dichloro-benzylamide]: half-maximal inhibition (IC50) required 238 nM.

As for `O=C(O)c1ccc(N2CC3CN(C(=O)NCc4ccc(Cl)cc4Cl)CC32)cc1` (racemic) [Example 21, rac-4-[3-(2,4-Dichloro-benzylcarbamoyl)-3,6-diaza-bicyclo[3.2.0]hept-6-yl]-benzoic acid], the IC50 came out at 351 nM.

For the molecule `O=C(NCc1ccc(Cl)cc1Cl)N1CC2(C1)CN(C(=O)c1ccccc1)C2` [Example 1, 6-Benzoyl-2,6-diaza-spiro[3.3]heptane-2-carboxylic acid 2,4-dichloro-benzylamide], the IC50 was 241 nM.

`O=C(NCc1ccccc1OC(F)(F)F)N1CC2(CCN2S(=O)(=O)c2ccc(Cl)cc2)C1` [Example 12, 1-(4-Chloro-benzenesulfonyl)-1,6-diaza-spiro[3.3]heptane-6-carboxylic acid 2-trifluoromethoxy-benzylamide] registered an IC50 of 243 nM.

In turn, `O=C(NCCCc1ccccc1)[C@H]1CCC12CN(S(=O)(=O)c1ccccc1Cl)C2` [Example 15, (S)-2-(2-Chlorophenylsulfonyl)-N-(3-phenylpropyl)-2-azaspiro[3.3]heptane-5-carboxamide] returned an IC50 of 288 nM.

With `O=C(NCc1ccc(Cl)cc1Cl)N1CC2CN(c3ncccn3)C2C1` (racemic) [Example 20, rac-6-Pyrimidin-2-yl-3,6-diaza-bicyclo[3.2.0]heptane-3-carboxylic acid 2,4-dichloro-benzylamide], the IC50 turned out to be 361 nM.

For the molecule `O=C(NCCCc1ccccc1)N1CC2(CCN2S(=O)(=O)c2ccc(Cl)cc2)C1` [Example 9, 1-(4-Chloro-benzenesulfonyl)-1,6-diaza-spiro[3.3]heptane-6-carboxylic acid (3-phenyl-propyl)-amide], the IC50 was 1990 nM.

In the case of `O=C(NCCCc1ccccc1)N1CC2(CCN2Cc2ccccc2)C1` [Example 8, Benzyl-1,6-diaza-spiro[3.3]heptane-6-carboxylic acid (3-phenyl-propyl)-amide], half-maximal inhibition (IC50) required 1980 nM.

In the case of `O=C(NCc1ccc(Cl)cc1Cl)N1CC2CN(C(=O)c3ccccc3)C2C1` (racemic) [Example 18, rac-6-Benzoyl-3,6-diaza-bicyclo[3.2.0]heptane-3-carboxylic acid 2,4-dichloro-benzylamide], half-maximal inhibition (IC50) was put at 183 nM.

The molecule `O=C(NCc1ccc(Cl)cc1Cl)N[C@H]1CCC12CN(S(=O)(=O)c1ccc(Cl)cc1)C2` [Example 17, (S)-1-(2-(4-Chlorophenylsulfonyl)-2-azaspiro[3.3]heptan-5-yl)-3-(2,4-dichlorobenzyl)urea] had an IC50 of 678 nM.
